US9856304B2, “Peptide and application thereof” (Saitama Medical University, priority 2013, dated 2018)

How the values were obtained:
[1] = system: human iPS cells (200-9 cells, TIG3/KOSM cells, 253G1 cells); assay: Differentiation induction of human iPS cells into pancreatic hormone-producing cells (1), immunostaining; format: cell-based; details: 3 nM betagenin in step (D2), vs DMSO control, FIG. 3
Description: As human iPS cells, used were 253G1 cells purchased from the cell bank at RIKEN, TIG3/KOSM cells provided by Dr. Mitani at Saitama Medical University, 200-9 cells, a clone in which a reporter gene is introduced into TIG3/KOSM cells. TIG3/KOSM cells were established at The National Institute of Advanced Industrial Science and Technology by introducing 4 factors (the OCT gene, the KLF gene, the SOX gene, the MYC gene) into TIG-3 cells using Sendai virus (Nishimura, K. et al., J. Biol. Chem., 286, pp. 4760-4771 (2011)).
These cells were cultured/maintained in an ES cell culture medium (DMEM/ham F12, 20% KSR, nonessential amino acid, 2 mM L-glutamine, 0.1 mM 2-mercaptoethanol, 5.2 mM NaOH) with added 4 ng/mL FGF-2 (Global Stem) and penicillin/streptomycin (Nacalai Tesque, Inc.) along with SNL76/7 cells (DS Pharma Biomedical) treated with mitomycin-C. CTK (0.25% trypsin, 1 mg/mL collagenase IV, 20% KSR, 1 mM CaCl2 in PBS) was used for cell detachment, and diluted at a ratio of 1:3 to 1:4 to perform passage culture.
Cells were detached with trypsin-EDTA 3 days before the start of differentiation induction, and plated at a cell density of 6.3×10^4 cells/cm2, and cultured for 1 day in an ES cell culture medium with added 10 μM Y-27632 (Wako), 4 ng/mL FGF-2 and penicillin/streptomycin along with STO cells treated with mitomycin-C. Subsequently, they were further cultured for 2 days in an ES cell culture medium with added 4 ng/mL FGF-2 and penicillin/streptomycin.
On the first day of the start of differentiation induction, the culture medium was replaced with a RPMI1640 culture medium (Nacalai Tesque, Inc.) with added 2% (v/v) FBS, 100 ng/mL activin A (SBI) and 3 μM CHIR99021 (Axon Medchem), and cultured for 1 day (Step (A2)).
Subsequently, the culture medium was replaced with a RPMI1640 culture medium with added 2% (v/v) FBS and 100 ng/mL activin A, and cultured for 2 days (Step (B2)). […]
Then, the proportion (%) of C-peptide positive cells or insulin positive cells was determined using an image analyzer CellInsight (Thermo Fisher Scientific).

[2] = system: MIN6 cells (pancreatic β cell line); assay: EdU cell proliferation assay, growth promotion of pancreatic β cells (3), versus Peptides A, B, C; format: cell-based; details: betagenin 1 nM compared with Peptides A, C at 3 nM or 5 nM, FIG. 5
Experimental: MIN6 cells provided by Dr. Miyazaki at Osaka University were used as a pancreatic β cell line. MIN6 cells were maintained in a DMEM culture medium with added 15% (v/v) of FBS.
A DMSO solution was prepared so that the concentration of chemically synthesized betagenin was 97% of purity, as a pancreatic hormone-producing cell growth-promoting agent.
Further, for comparison, Peptides A, B, C consisting of the amino acid sequences set forth in SEQ ID Nos: 4 to 6, respectively, were prepared by chemical synthesis.
First, MIN6 cells were plated on a collagen-coated 8-well slide chamber (BD Falcon, Product Number 354630) at a cell density of 1×10^4 cells/well for confirming the growth promotion of pancreas β cells. After 24 hours, the culture medium was replaced with a DMEM culture medium with added 0.5% (v/v) of FBS, and then serum starvation was performed for 72 hours. Note that the culture medium was replaced with a fresh culture medium 48 hours after the start of serum starvation. […]
The incorporated EdU was visualized as red fluorescence using Alexa Flour™ 594, and observed with a fluorescence microscope (Carl Zeiss). […] Note that a red fluorescence part representing a region where EdU was taken up will be confirmed as a dark black part due to the operations of black and white processing and black and white inversion.

## betagenin: chemically synthesized peptide of SEQ ID NO: 1, fragment of human TM4SF20 from Position 170 to Position 229 (WRASSFHFDSEENKHRLIHFSVFLGLLLVGILEVLFGLSQIVIGFLGCLCGVSKRRSQIV; Peptide Sequence betagenin; listed as Homo sapiens)
[1]; 200-9 cells
  proportion of C-peptide positive cells or insulin positive cells: increased
[1]; 253G1 cells
  proportion of C-peptide positive cells or insulin positive cells: increased
[1]; TIG3/KOSM cells
  proportion of C-peptide positive cells or insulin positive cells: increased
[2]
  EdU uptake in fluorescence microscope images (dark black parts): significantly darker black parts
